# Measured values from US10617690B2 (priority 2015, dated 2020).
# Experiments:
# JAK3 = molecular target: T1, JAK3 (Homo sapiens, UniProt P52333); assay: In vitro activity test of JAK3 kinase (LANCE Ultra TR-FRET); format: biochemical;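 also: recombinant human JAK3 phosphorylating ULight-JAK-1(Tyr1023) peptide at 4 µM ATP, with 1% DMSO, detected by Eu-anti-phosphotyrosine TR-FRET on Envision and converted to percent inhibition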
# T1 construct: purchased Life technology
# T1 sequence (P52333 1-1124): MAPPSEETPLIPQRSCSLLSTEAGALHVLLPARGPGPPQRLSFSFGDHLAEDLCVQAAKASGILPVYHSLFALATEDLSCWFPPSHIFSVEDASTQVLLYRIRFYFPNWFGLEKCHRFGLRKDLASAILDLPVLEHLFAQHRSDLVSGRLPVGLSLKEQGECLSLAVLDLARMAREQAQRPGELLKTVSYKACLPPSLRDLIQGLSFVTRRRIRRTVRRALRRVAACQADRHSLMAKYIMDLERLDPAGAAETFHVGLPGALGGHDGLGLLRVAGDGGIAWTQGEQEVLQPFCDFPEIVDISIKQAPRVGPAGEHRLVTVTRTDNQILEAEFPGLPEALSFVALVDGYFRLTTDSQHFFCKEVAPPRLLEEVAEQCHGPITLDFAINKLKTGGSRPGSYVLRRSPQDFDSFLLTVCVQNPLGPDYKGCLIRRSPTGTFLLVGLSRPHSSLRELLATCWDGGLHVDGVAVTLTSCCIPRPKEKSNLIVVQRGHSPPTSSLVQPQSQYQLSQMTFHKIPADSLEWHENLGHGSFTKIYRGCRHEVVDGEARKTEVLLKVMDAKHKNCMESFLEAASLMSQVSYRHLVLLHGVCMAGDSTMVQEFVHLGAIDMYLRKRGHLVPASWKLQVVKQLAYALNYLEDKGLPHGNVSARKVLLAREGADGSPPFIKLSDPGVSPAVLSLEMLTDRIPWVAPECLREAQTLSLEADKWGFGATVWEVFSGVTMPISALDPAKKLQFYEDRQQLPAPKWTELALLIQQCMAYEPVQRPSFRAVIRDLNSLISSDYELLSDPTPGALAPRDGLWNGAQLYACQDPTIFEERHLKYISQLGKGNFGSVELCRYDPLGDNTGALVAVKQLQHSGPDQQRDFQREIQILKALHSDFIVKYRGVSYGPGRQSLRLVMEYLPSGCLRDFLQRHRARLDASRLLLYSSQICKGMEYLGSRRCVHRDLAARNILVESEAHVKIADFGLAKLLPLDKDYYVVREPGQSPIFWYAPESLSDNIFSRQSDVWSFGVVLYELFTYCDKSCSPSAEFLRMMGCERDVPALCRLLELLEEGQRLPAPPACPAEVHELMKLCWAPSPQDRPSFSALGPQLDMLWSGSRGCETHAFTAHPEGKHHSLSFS
# Description: (§1) Recombinant humanized JAK1, JAK2 and JAK3 protease were all purchased from Life technology. LANCE Ultra ULight™-JAK-1(Tyr1023) peptide and LANCE Eu-W1024 Anti-phosphotyrosine (PT66) were both purchased from PerkinElmer. Envision (PerkinElmer) was used to read a plate.
# 0.05 nM protein kinase, 50 nM LANCE Ultra ULight™-JAK-1(Tyr1023) peptide, 4 uM ATP, 50 mM HEPES (pH7.5), 10 mM MgCl2, 1 mM EGTA, 2 mM DTT, and 0.01% BRIJ-35.
# (§2) The reading was converted into a suppression ratio as follow equation: (%)=(Min−Ratio)/(Max−Min)*100%.
# JAK2 protein kinase = JAK2 protein kinase (Homo sapiens, UniProt O60674); assay: biochemical; conditions: 12 uM ATP, 60 min;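 also: recombinant human JAK2 with ULight-labelled JAK-1(Tyr1023) peptide substrate, phosphorylation detected by TR-FRET using Eu-labelled anti-phosphotyrosine antibody, 1% DMSO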
# Sequence of JAK2 protein kinase (O60674 whole entry): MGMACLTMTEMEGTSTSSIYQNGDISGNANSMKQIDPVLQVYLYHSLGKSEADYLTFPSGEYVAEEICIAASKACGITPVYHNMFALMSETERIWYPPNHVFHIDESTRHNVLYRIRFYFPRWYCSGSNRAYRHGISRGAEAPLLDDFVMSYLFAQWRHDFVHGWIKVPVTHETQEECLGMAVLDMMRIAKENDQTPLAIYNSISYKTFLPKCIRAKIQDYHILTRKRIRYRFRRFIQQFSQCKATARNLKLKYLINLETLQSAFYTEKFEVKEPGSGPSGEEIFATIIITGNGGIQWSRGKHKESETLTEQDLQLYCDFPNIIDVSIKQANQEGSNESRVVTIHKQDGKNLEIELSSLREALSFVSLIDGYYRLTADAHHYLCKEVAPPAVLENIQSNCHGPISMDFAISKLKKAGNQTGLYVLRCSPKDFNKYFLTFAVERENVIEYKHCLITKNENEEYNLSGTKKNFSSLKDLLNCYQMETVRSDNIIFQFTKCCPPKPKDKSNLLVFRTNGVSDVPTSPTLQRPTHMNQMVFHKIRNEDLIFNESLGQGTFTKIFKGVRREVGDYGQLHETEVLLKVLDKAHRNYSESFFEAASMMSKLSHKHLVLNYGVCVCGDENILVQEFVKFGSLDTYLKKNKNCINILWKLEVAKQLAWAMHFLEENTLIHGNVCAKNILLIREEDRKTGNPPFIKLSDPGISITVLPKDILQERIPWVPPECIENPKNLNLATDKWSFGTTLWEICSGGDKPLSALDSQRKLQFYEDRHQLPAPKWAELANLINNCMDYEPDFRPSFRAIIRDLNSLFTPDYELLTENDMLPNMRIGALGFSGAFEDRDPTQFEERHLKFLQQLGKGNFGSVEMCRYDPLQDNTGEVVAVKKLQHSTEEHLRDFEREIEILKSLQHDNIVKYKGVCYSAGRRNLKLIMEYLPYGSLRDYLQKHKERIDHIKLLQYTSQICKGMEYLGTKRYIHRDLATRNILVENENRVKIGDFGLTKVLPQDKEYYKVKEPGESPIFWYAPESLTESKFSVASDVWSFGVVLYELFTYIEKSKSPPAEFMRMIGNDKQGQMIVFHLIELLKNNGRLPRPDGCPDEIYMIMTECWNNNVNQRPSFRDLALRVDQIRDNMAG
# Description: as §1, §2
# JAK1 protein kinase = JAK1 protein kinase (Homo sapiens, UniProt P23458); assay: biochemical; conditions: 38 uM ATP, 90 min
# Sequence of JAK1 protein kinase (P23458 whole entry): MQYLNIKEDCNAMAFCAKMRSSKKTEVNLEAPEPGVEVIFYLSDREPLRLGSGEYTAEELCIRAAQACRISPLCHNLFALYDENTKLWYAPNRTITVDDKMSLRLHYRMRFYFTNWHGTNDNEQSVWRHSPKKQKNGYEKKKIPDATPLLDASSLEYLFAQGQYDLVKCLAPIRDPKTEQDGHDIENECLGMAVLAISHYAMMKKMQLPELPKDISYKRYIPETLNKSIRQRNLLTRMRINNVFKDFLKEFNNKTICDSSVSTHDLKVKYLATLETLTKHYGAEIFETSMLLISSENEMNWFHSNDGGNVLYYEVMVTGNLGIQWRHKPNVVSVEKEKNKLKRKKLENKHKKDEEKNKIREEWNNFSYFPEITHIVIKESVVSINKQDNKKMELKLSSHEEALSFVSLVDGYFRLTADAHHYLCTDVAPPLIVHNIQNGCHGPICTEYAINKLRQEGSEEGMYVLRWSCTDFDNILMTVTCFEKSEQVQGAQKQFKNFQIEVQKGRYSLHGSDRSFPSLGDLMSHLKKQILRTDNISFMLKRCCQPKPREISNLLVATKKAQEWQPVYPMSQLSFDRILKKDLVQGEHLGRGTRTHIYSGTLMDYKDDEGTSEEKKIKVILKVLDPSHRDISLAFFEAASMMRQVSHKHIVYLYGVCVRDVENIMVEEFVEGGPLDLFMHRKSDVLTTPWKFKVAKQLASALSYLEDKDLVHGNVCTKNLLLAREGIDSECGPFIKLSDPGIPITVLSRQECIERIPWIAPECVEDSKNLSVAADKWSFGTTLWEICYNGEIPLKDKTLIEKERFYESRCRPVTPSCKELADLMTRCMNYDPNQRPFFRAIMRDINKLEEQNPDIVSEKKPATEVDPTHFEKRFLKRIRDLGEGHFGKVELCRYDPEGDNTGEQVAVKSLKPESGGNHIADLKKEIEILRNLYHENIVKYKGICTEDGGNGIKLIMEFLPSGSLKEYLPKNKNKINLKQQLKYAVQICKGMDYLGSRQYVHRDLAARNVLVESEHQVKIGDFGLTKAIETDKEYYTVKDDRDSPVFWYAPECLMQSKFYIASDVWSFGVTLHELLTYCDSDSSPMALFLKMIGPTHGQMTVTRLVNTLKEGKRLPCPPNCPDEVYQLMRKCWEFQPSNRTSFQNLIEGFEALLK
# Description: In Vitro Activity Test of Jak1, Jak 2 and Jak 3 Kinase
# Recombinant humanized JAK1, JAK2 and JAK3 […] were all purchased from Life technology. LANCE Ultra ULight™-JAK-1(Tyr1023) peptide and LANCE Eu-W1024 Anti-phosphotyrosine (PT66) were both purchased from PerkinElmer. Envision (PerkinElmer) was used to read a plate.
# Three dilution of a test compound was prepared, and 11 final concentrations were obtained: 10 uM to 0.17 nM. Each concentration had two repeat wells. The content of DMSO in a detection reaction was 1%.
# 2 nM JAK1 protein kinase, 50 nM LANCE Ultra ULight™-JAK-1(Tyr1023) peptide, 38 uM ATP, 50 mM HEPES (pH7.5), 10 mM MgCl2, 1 mM EGTA, 2 mM DTT, and 0.01% BRIJ-35. Detection plate was White Proxiplate 384-Plus plate (PerkinElmer), the reaction was conducted for 90 min at room temperature, and reaction system was 10 ul.
# 10 ul detection reagent was added into the reaction plate, wherein the final concentration of LANCE Eu-W1024 Anti-phosphotyrosine (PT66) was 2 nM, the final concentration of EDTA was 10 mM, incubation was conducted for 60 min at room temperature, and the plate was read by the Envision.
# The reading was converted into a suppression ratio as follow equation: (%)=([…])/(Max−Min)*100%. IC50 data was detected by 4 parametric curve fitting (Model 205 in XLFIT5, iDBS), see Table 1.
Compound,IC50 (JAK3) [nM],IC50 (JAK2 protein kinase) [nM],IC50 (JAK1 protein kinase) [nM]
"CN(c1ncnc2[nH]ccc12)N1CCC[C@H](C(=O)NCC#N)C1 (single isomer, unassigned) [WX09, (S or R)—N-(cyanomethyl-1-[methyl(7H-pyrrolo[2,3-d]pyrimidin-4-yl)amino]piperidyl)-3-formamide]",> 1000,> 1000,100 to 1000
"CN(c1ncnc2[nH]ccc12)N1CCC(C(=O)NCC(F)(F)F)C1 (single isomer, unassigned) [WX32, (R or S)-1-[methyl(7H-pyrrolo[2,3-d]pyrimidin-4-yl)amino]-N-(2,2,2-trifluoroethyl) pyrrolidyl-3-formamide]",10 to 100,< 10,< 10
"CN(c1ncnc2[nH]ccc12)N1CCC(C(=O)NCC(F)(F)F)C1 (single isomer, unassigned) [WX33, (S or R)-1-[methyl(7H-pyrrolo[2,3-d]pyrimidin-4-yl)amino]-N-(2,2,2-trifluoroethyl)pyrrolidyl-3-formamide]",–,100 to 1000,10 to 100
"CN(c1ncnc2[nH]ccc12)N1CCC[C@@H](C(=O)NCC(F)F)C1 (single isomer, unassigned) [WX49, (3R or 3S)-1-[methyl(7H-pyrrole[2,3-d]pyrimidine-4-)amino]-N-(2,2-difluoroethyl)piperidyl-3-formamide]",< 10,< 10,< 10
"CN(c1ncnc2[nH]ccc12)N1CCC[C@H](C(=O)NCC(F)F)C1 (single isomer, unassigned) [WX50, (3S or 3R)-1-[methyl(7H-pyrrole[2,3-d]pyrimidine-4-)amino]-N-(2,2-difluoroethyl)piperidyl-3-formamide]",100 to 1000,> 1000,100 to 1000
"CN(c1ncnc2[nH]ccc12)N1CCC[C@@H](C(=O)NCC(F)(F)C(F)(F)F)C1 (single isomer, unassigned) [WX51, (3R or 3S)-1-[methyl(7H-pyrrole[2,3-d]pyrimidine-4-)amino]-N-(2,2,3,3,3-pentafluoropropyl)piperidyl-3-formamide]",> 1000,> 1000,> 1000
"CN(c1ncnc2[nH]ccc12)N1CCC[C@H](C(=O)NCC(F)(F)C(F)(F)F)C1 (single isomer, unassigned) [WX52, (3S or 3R)-1-[methyl(7H-pyrrole[2,3-d]pyrimidine-4-)amino]-N-(2,2,3,3,3-pentafluoropropyl)piperidyl-3-formamide]",10 to 100,10 to 100,< 10
"O=C(NCC(F)(F)F)C1CCCN(Nc2ncnc3[nH]ccc23)C1 (stereo not shown) [WX01, 1-((7H-pyrrolo[2,3-d]pyrimidin-4-yl)amino)-N-(2,2,2-trifluoroethyl)piperidyl-3-formamide]",10 to 100,10 to 100,< 10
"CN(CC(F)(F)F)C(=O)C1CCCN(N(C)c2ncnc3[nH]ccc23)C1 (stereo not shown) [WX02, N-methyl-1-(methyl(7H-pyrrolo[2,3-d]pyrimidin-4-yl)amino)-(2,2,2-trifluoroethyl)piperidyl-3-formamide]",10 to 100,100 to 1000,10 to 100
"N#CCNC(=O)C1CCCN(Nc2ncnc3[nH]ccc23)C1 (stereo not shown) [WX03, N-(cyanomethyl)-1-(7H-pyrrolo[2,3-d]pyrimidin-4-yl-amino)piperidyl-3-formamide]",10 to 100,10 to 100,< 10
"CCOC(=O)C1CCCN(N(C)c2ncnc3[nH]ccc23)C1 (stereo not shown) [WX10, Ethyl 1-[methyl(7H-pyrrolo[2,3-d]pyrimidin-4-yl)amino]piperidyl-3-carboxylate]",10 to 100,100 to 1000,10 to 100
CN(c1ncnc2[nH]ccc12)N1CCCC(C(N)=O)C1 (stereo not shown) [WX11],100 to 1000,100 to 1000,100 to 1000
CN(c1ncnc2[nH]ccc12)N1CCCC(NC(=O)CC#N)C1 (stereo not shown) [WX12],100 to 1000,> 1000,100 to 1000
"CN(c1ncnc2[nH]ccc12)N1CCCC(NC(=O)CC(F)(F)F)C1 (stereo not shown) [WX13, 3,3,3-trifluoroethyl-N-(1-(methyl(7H-pyrrolo[2,3-d]pyrimidin-4-yl)amino)piperidyl-3-)propylcarboxamide]",100 to 1000,> 1000,100 to 1000
"CN(c1ccnc2[nH]ccc12)N1CCCC(C(=O)NCC(F)(F)F)C1 (stereo not shown) [WX15, N-(2,2,2-trifluoroethyl)-1-(methyl(1H-pyrrole[2,3-d]pyridin-4-yl)amino)piperidyl-3-formamide]",100 to 1000,100 to 1000,10 to 100
"CN(c1ncnc2[nH]ccc12)N1CCCC(C(=O)NCCC#N)C1 (stereo not shown) [WX16, N-(cyanoethyl)-1-(methyl(1H-pyrrole[2,3-d]pyridyl-4-)amino)piperidyl-3-formamide]",100 to 1000,–,10 to 100
CN(c1ncnc2[nH]ccc12)N1CCCC(CC(=O)NCC(F)(F)F)C1 (stereo not shown) [WX17],100 to 1000,> 1000,100 to 1000
CN(c1ncnc2[nH]ccc12)N1CCCC(CC(=O)NCC#N)C1 (stereo not shown) [WX18],100 to 1000,> 1000,100 to 1000
"CN(c1ncnc2[nH]ccc12)N1CCCC(CNC(=O)CC(F)(F)F)C1 (stereo not shown) [WX19, 3,3,3-trifluoro-N-((1-(methyl(7H-pyrrole[2,3-d]pyrimidine-4-)amino)piperidyl-3-)methyl)propionamide]",100 to 1000,> 1000,100 to 1000
"CN(c1ncnc2[nH]ccc12)N1CCC(C(=O)NCC#N)CC1 [WX20, N-(cyanomethyl)-1-(methyl(7H-pyrrolo[2,3-d]pyrimidin-4-yl)amino)piperidyl-4-formamide]",10 to 100,100 to 1000,10 to 100
N#CCNC(=O)C1CCN(Nc2ncnc3[nH]ccc23)CC1 [WX21],100 to 1000,> 1000,10 to 100
O=C(NCC(F)(F)F)C1CCN(Nc2ncnc3[nH]ccc23)CC1 [WX22],100 to 1000,> 1000,100 to 1000
CN(c1ncnc2[nH]ccc12)N1CCC(C(=O)NCC(F)(F)F)CC1 [WX23],10 to 100,100 to 1000,10 to 100
CN(c1ncnc2[nH]ccc12)N1CCC(NC(=O)CC(F)(F)F)CC1 [WX24],100 to 1000,100 to 1000,10 to 100
"CN(c1ncnc2[nH]ccc12)N1CCC(NC(=O)CC#N)CC1 [WX25, 2-cyano-N-(1-(methyl(7H-pyrrolo[2,3-d]pyrimidin-4-yl)amino)piperidin-4-yl)acetamide]",100 to 1000,100 to 1000,10 to 100
"CC1CCC(C(=O)NCC#N)CN1N(C)c1ncnc2[nH]ccc12 (stereo not shown) [WX26, N-(cyanomethyl)-6-methyl-1-[methyl(7H-pyrrolo[2,3-d]pyrimidin-4-yl)amino]piperidyl-3-formamide]",100 to 1000,> 1000,100 to 1000
"CC1CCC(C(=O)NCC(F)(F)F)CN1N(C)c1ncnc2[nH]ccc12 (stereo not shown) [WX27, 6-methyl-1-(methyl(7H-pyrrole[2,3-d]pyrimidin-4-yl)amino)-N-(2,2,2-trifluoroethyl)piperidyl-3-formamide]",100 to 1000,> 1000,100 to 1000
"CC1CCC2CN1N(c1ncnc3[nH]ccc13)C2=O (stereo not shown) [WX28, 2-methyl-7-(7H-pyrrolo[2,3-d]pyrimidin-4-yl)-1,7-diazabicyclo[3.2.1]octan-6-one]",> 1000,> 1000,> 1000
